Tested on: venous blood from rhesus monkeys
Assay: Hemolytic activity in vitro (standard hemolysis test)
Assay type: cell-based
Settings: for Hemolysis (%): fresh heparinized rhesus monkey blood, 37° C., 3 hours, absorption at 540 nm, % of maximum inducible hemolysis (distilled water = 100%), dilutions 1600-3.125 mg/l, concentration behind the value not stated; for hemolysis in the standard hemolysis test (in words): rhesus monkey blood
Protocol: 2) Freshly removed venous blood from rhesus monkeys is used to measure the hemolytic activity. The blood is collected in heparinized tubes and 200 μl aliquots are distributed over 12 polyethylene tubes. 200 μl of distilled water are added to one aliquot, which serves as 100% standard, and another is mixed with 200 μl of physiological saline (0.9% NaCl) (0% standard). 200 μl portions of substance dilutions in physiological saline containing 1600, 800, 400, 200, 100, 50, 25, 12.5, 6.25 and 3.125 mg/l are distributed over the other tubes. All the tubes are cautiously swirled and incubated at 37° C. for 3 hours. Subsequently 100% standard is made up with 5 ml of distilled water, and the others are each made up with 5 ml of physiological saline and centrifuged at 700 g for 5 minutes.
The hemolysis is determined by measuring the absorption of the supernatant in a spectrophotometer at a wavelength of 540 nm. The absorption of the standard with complete hemolysis (distilled water) is set equal to 100%. The absorptions of the test product dilutions and of the 0% standard are measured and reported as a percentage of the maximum inducible hemolysis.

Compound	Hemolysis (%)	hemolysis in the standard hemolysis test (in words)
CCCCCCCCCCCCC(=O)NC(CC(=O)O)C(=O)NC1C(=O)N2CCCCC2C(=O)NC(C(C)C(=O)O)C(=O)NC(CC(=O)O)C(=O)NCC(=O)NC(CC(=O)O)C(=O)NCC(=O)NC(C(C)N)C(=O)NC(C(C)C)C(=O)N2CCCC2C(=O)NC1C (centres unmarked) [Example 1, Tridecanoyl Derivative of A 1437 Cyclic Peptide]	19.6	
CCCCCCCCCCC(=O)NC(CC(=O)O)C(=O)NC1C(=O)N2CCCCC2C(=O)NC(C(C)C(=O)O)C(=O)NC(CC(=O)O)C(=O)NCC(=O)NC(CC(=O)O)C(=O)NCC(=O)NC(C(C)N)C(=O)NC(C(C)C)C(=O)N2CCCC2C(=O)NC1C (centres unmarked) [Example 6]	16.5	
CCCCCCCCCCCC(=O)NC(CC(=O)O)C(=O)NC1C(=O)N2CCCCC2C(=O)NC(C(C)C(=O)O)C(=O)NC(CC(=O)O)C(=O)NCC(=O)NC(CC(=O)O)C(=O)NCC(=O)NC(C(C)N)C(=O)NC(C(C)C)C(=O)N2CCCC2C(=O)NC1C (centres unmarked) [Example 7]	25.7	
CCCCCCCCCCCCCC(=O)NC(CC(=O)O)C(=O)NC1C(=O)N2CCCCC2C(=O)NC(C(C)C(=O)O)C(=O)NC(CC(=O)O)C(=O)NCC(=O)NC(CC(=O)O)C(=O)NCC(=O)NC(C(C)N)C(=O)NC(C(C)C)C(=O)N2CCCC2C(=O)NC1C (centres unmarked) [Example 8]	19.3	
CCCCCCCCCCCCCCC(=O)NC(CC(=O)O)C(=O)NC1C(=O)N2CCCCC2C(=O)NC(C(C)C(=O)O)C(=O)NC(CC(=O)O)C(=O)NCC(=O)NC(CC(=O)O)C(=O)NCC(=O)NC(C(C)N)C(=O)NC(C(C)C)C(=O)N2CCCC2C(=O)NC1C (centres unmarked) [Example 9]	22.8	
CC(C)CCCCCCCCCCC(=O)NC(CC(=O)O)C(=O)NC1C(=O)N2CCCCC2C(=O)NC(C(C)C(=O)O)C(=O)NC(CC(=O)O)C(=O)NCC(=O)NC(CC(=O)O)C(=O)NCC(=O)NC(C(C)N)C(=O)NC(C(C)C)C(=O)N2CCCC2C(=O)NC1C (centres unmarked) [Example 14]	22.9	
CCCCCCCc1ccc(C(=O)NC(CC(=O)O)C(=O)NC2C(=O)N3CCCCC3C(=O)NC(C(C)C(=O)O)C(=O)NC(CC(=O)O)C(=O)NCC(=O)NC(CC(=O)O)C(=O)NCC(=O)NC(C(C)N)C(=O)NC(C(C)C)C(=O)N3CCCC3C(=O)NC2C)cc1 (centres unmarked) [Example 49]	0.0	
CC(C)C1NC(=O)C(C(C)N)NC(=O)CNC(=O)C(CC(=O)O)NC(=O)CNC(=O)C(CC(=O)O)NC(=O)C(C(C)C(=O)O)NC(=O)C2CCCCN2C(=O)C(NC(=O)C(CC(=O)O)NC(=O)c2ccc(CCc3ccc(-c4ccccc4)cc3)cc2)C(C)NC(=O)C2CCCN2C1=O (centres unmarked) [Example 55]	0.5	virtually no evidence of hemolysis
CC(C)C1NC(=O)C(C(C)N)NC(=O)CNC(=O)C(CC(=O)O)NC(=O)CNC(=O)C(CC(=O)O)NC(=O)C(C(C)C(=O)O)NC(=O)C2CCCCN2C(=O)C(NC(=O)C(CC(=O)O)NC(=O)c2ccc(CCc3ccc(CCc4ccccc4)cc3)cc2)C(C)NC(=O)C2CCCN2C1=O (centres unmarked) [Example 56]	0.4	virtually no evidence of hemolysis

Reference: patent US5629288A, “Lipopeptide derivatives, a process for their preparation and their use” (Hoechst Aktiengesellschaft, priority 1994, dated 1997)
